# Data from ChEMBL document CHEMBL3885881, “DrugMatrix”.
# Species: Rattus norvegicus
# Assay: DrugMatrix - Regimen: Daily Repeat
# Assay type: toxicity, organism-based, Sprague-Dawley
# Parameters: regimen Daily Repeat, gender Male, age 6-8 weeks
# Details: in vivo, po, 600 mg/kg, route oral GAVAGE, dose level High
# [1] = 72 h, tissue Plasma, time 3 day, vehicle 100 % WATER
# [2] = 120 h, tissue Blood, time 5 day, […]
# [3] = 120 h, tissue Blood, time 5 day, vehicle 100 % WATER
# [4] = 120 h, tissue Plasma, time 5 day, […]
# [5] = 120 h, tissue Plasma, time 5 day, vehicle 100 % WATER
smiles,measurement,setting,value
ClC(Cl)Cl [CHLOROFORM],SODIUM,[1],144.7 MEQ/L
same,TOTAL BILIRUBIN,[1],0.13 mg/dL
same,TOTAL PROTEIN,[1],6.6 G/DL
same,URIC ACID,[1],0.7 mg/dL
same,ABSOLUTE LYMPHOCYTE,[2],11359.33 CELLS/uL
same,ABSOLUTE MONOCYTE,[2],227.33 CELLS/uL
same,ABSOLUTE SEGMENTED NEUTROPHIL,[2],6880 CELLS/uL
same,ERYTHROCYTE COUNT,[2],7.17 x10E6/uL
same,HEMATOCRIT,[2],42.1%
same,HEMOGLOBIN,[2],15.6 G/DL
same,LEUKOCYTE COUNT,[2],18.47 x10E3/uL
same,LYMPHOCYTE,[2],73%
same,MEAN CORPUSCULAR HEMOGLOBIN,[2],21.73 pg
same,MEAN CORPUSCULAR HEMOGLOBIN CONCENTRATION,[2],37.07 G/DL
same,MEAN CORPUSCULAR VOLUME,[2],58.7 fL
same,MONOCYTE,[2],2%
same,NEUTROPHIL,[2],25%
same,PLATELET COUNT,[2],1040.67 x10E3/uL
same,ABSOLUTE BASOPHIL,[3],0 CELLS/uL
same,ABSOLUTE EOSINOPHIL,[3],0 CELLS/uL
same,ABSOLUTE LYMPHOCYTE,[3],9175.5 CELLS/uL
same,ABSOLUTE MONOCYTE,[3],105.5 CELLS/uL
same,ABSOLUTE SEGMENTED NEUTROPHIL,[3],1269 CELLS/uL
same,BASOPHIL,[3],0%
same,EOSINOPHIL,[3],0%
same,ERYTHROCYTE COUNT,[3],6.48 x10E6/uL
same,HEMATOCRIT,[3],39.2%
same,HEMOGLOBIN,[3],15.15 G/DL
same,LEUKOCYTE COUNT,[3],10.55 x10E3/uL
same,LYMPHOCYTE,[3],88%
same,MEAN CORPUSCULAR HEMOGLOBIN,[3],23.4 pg
same,MEAN CORPUSCULAR HEMOGLOBIN CONCENTRATION,[3],38.7 G/DL
same,MEAN CORPUSCULAR VOLUME,[3],60.5 fL
same,MONOCYTE,[3],1%
same,NEUTROPHIL,[3],11%
same,NUCLEATED RED BLOOD CELLS,[3],0 /100WBC
same,PLATELET COUNT,[3],959 x10E3/uL
same,ALANINE AMINOTRANSFERASE,[4],212 u/L
same,ALBUMIN,[4],4.1 G/DL
same,ALKALINE PHOSPHATASE,[4],626 u/L
same,ASPARTATE AMINOTRANSFERASE,[4],299.67 u/L
same,BLOOD UREA NITROGEN,[4],49.67 mg/dL
same,CARBON DIOXIDE,[4],19.67 mmol/L
same,CHLORIDE,[4],110.67 MEQ/L
same,CHOLESTEROL,[4],110.33 mg/dL
same,CREATINE PHOSPHOKINASE,[4],744 u/L
same,CREATININE,[4],0.83 mg/dL
same,GLUCOSE,[4],119.33 mg/dL
same,LACTATE DEHYDROGENASE,[4],376 u/L
same,PHOSPHORUS,[4],13.27 mg/dL
same,POTASSIUM,[4],9.12 MEQ/L
same,SODIUM,[4],144.83 MEQ/L
same,TOTAL BILIRUBIN,[4],0.63 mg/dL
same,TOTAL PROTEIN,[4],5.77 G/DL
same,URIC ACID,[4],1.3 mg/dL
same,ALANINE AMINOTRANSFERASE,[5],46.5 u/L
same,ALBUMIN,[5],4.05 G/DL
same,ALKALINE PHOSPHATASE,[5],305.5 u/L
same,ASPARTATE AMINOTRANSFERASE,[5],71 u/L
same,BLOOD UREA NITROGEN,[5],15 mg/dL
same,CARBON DIOXIDE,[5],29 mmol/L
same,CHLORIDE,[5],102.5 MEQ/L
same,CHOLESTEROL,[5],69 mg/dL
same,CREATINE PHOSPHOKINASE,[5],475.5 u/L
same,CREATININE,[5],0.21 mg/dL
same,GLUCOSE,[5],150.5 mg/dL
same,LACTATE DEHYDROGENASE,[5],93 u/L
same,LIPASE,[5],11 u/L
same,PHOSPHORUS,[5],11.45 mg/dL
same,POTASSIUM,[5],5.24 MEQ/L
same,SODIUM,[5],146.9 MEQ/L
same,TOTAL BILIRUBIN,[5],0.1 mg/dL
same,TOTAL PROTEIN,[5],6.05 G/DL
same,URIC ACID,[5],0.95 mg/dL
